Among the data in the supplement of paper PMC10307832 are relative viability values, retold here.

Common to all, as to assay: relative viability (nuclei count vs DMSO), 5 days (fraction); higher = more cells survive
Compound in assay [1]: CO[C@@H]1[C@H](N(C)C(=O)c2ccccc2)C[C@H]2O[C@]1(C)n1c3ccccc3c3c4c(c5c6ccccc6n2c5c31)C(=O)NC4 [Midostaurin] + Cc1nc(Nc2ncc(C(=O)Nc3c(C)cccc3Cl)s2)cc(N2CCN(CCO)CC2)n1 [Dasatinib] (partner 0.075 µM)
The method in brief:
(§1)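 Lung cancer cell lines in 1536-well plates got either a single drug or a fixed anchor-drug dose together with five library-drug doses (not always all listed) in √10 steps, by pin tool, on the day after seeding. Nuclei were counted after 5 days, and relative viability is the treated-to-vehicle ratio of nuclei counts. Values are medians of duplicate plates.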

Compound in assay [2]: CO[C@@H]1[C@H](N(C)C(=O)c2ccccc2)C[C@H]2O[C@]1(C)n1c3ccccc3c3c4c(c5c6ccccc6n2c5c31)C(=O)NC4 [Midostaurin] + O=C(c1cc(Cc2n[nH]c(=O)c3ccccc23)ccc1F)N1CCN(C(=O)C2CC2)CC1 [Olaparib] (partner 8 µM)
The method in brief:
as §1

Compound in assay [3]: COc1cc(-c2nn([C@H]3CC[C@H](N4CCN(C(C)=O)CC4)CC3)c3ncnc(N)c23)ccc1NC(=O)c1cc2ccccc2n1C + CC(=O)Nc1cccc(-n2c(=O)n(C3CC3)c(=O)c3c(Nc4ccc(I)cc4F)n(C)c(=O)c(C)c32)c1 [Trametinib] (partner 0.02 µM)
The method in brief: as §1

Compound in assay [4]: COc1cc(-c2nn([C@H]3CC[C@H](N4CCN(C(C)=O)CC4)CC3)c3ncnc(N)c23)ccc1NC(=O)c1cc2ccccc2n1C + COc1cccc2cc(-c3nc([C@H]4CC[C@H](C(=O)O)CC4)n4ncnc(N)c34)[nH]c12 [OSI-027] (partner 0.5 µM)
An outline of the steps: as §1

Compound in assay [5]: COc1cc(-c2nn([C@H]3CC[C@H](N4CCN(C(C)=O)CC4)CC3)c3ncnc(N)c23)ccc1NC(=O)c1cc2ccccc2n1C + C[C@@H](Oc1cc(-c2cnn(C3CCNCC3)c2)cnc1N)c1c(Cl)ccc(F)c1Cl [Crizotinib] (partner 1 µM)
The method in brief: as §1

Consider NCI-H2087, for which the relative viability turned out to be 1.03 in assay [1] (first compound 0.01 µM); 0.757 in assay [1] (first compound 0.03162 µM); 0.917 in assay [1] (first compound 0.1 µM); 0.777 in assay [1] (first compound 0.3162 µM); 0.585 in assay [2] (first compound 0.01 µM); 0.539 in assay [2] (first compound 0.03162 µM). Also, the relative viability in assay [2] (first compound 0.1 µM) stood at 0.635; in assay [2] (first compound 0.3162 µM), 0.608; in assay [3] (first compound 0.0128 µM) it was 0.209; in assay [3] (first compound 0.128 µM), 0.207; in assay [3] (first compound 1.28 µM) it was 0.17; in assay [4] (first compound 0.0128 µM), 0.692. In addition, the relative viability in assay [4] (first compound 0.128 µM) was found to be 0.611; in assay [4] (first compound 1.28 µM) it was 0.648; in assay [5] (first compound 0.0128 µM), 1.1; in assay [5] (first compound 0.04048 µM) it was 1; in assay [5] (first compound 0.128 µM) it was 0.703; in assay [5] (first compound 1.28 µM) it was 0.947.

On to BEN, for which the relative viability in assay [1] (first compound 0.01 µM) is 0.371; in assay [1] (first compound 0.03162 µM), 0.32; in assay [1] (first compound 0.1 µM), 0.405; in assay [1] (first compound 0.3162 µM), 0.379; in assay [2] (first compound 0.01 µM) it was 1.12; in assay [2] (first compound 0.03162 µM), 1.24. Further, the relative viability in assay [2] (first compound 0.1 µM) turned out to be 0.928; in assay [2] (first compound 0.3162 µM) it was 1.13; in assay [3] (first compound 0.0128 µM), 1.07; in assay [3] (first compound 0.04048 µM), 0.97; in assay [3] (first compound 0.128 µM), 0.953; in assay [3] (first compound 1.28 µM) it was 0.838. The relative viability in assay [4] (first compound 0.0128 µM) stood at 0.27; in assay [4] (first compound 0.04048 µM), 0.296; in assay [4] (first compound 0.128 µM), 0.311; in assay [4] (first compound 1.28 µM), 0.291; in assay [5] (first compound 0.0128 µM) it was 0.8; in assay [5] (first compound 0.04048 µM) it was 0.996. The relative viability in assay [5] (first compound 0.128 µM) was 0.756; in assay [5] (first compound 1.28 µM), 0.576.

As to LCLC-103H, the relative viability in assay [1] (first compound 0.01 µM) was found to be 0.545; in assay [1] (first compound 0.03162 µM) it was 0.456; in assay [1] (first compound 0.1 µM), 0.389; in assay [1] (first compound 0.3162 µM), 0.416; in assay [2] (first compound 0.01 µM) it was 0.746; in assay [2] (first compound 0.03162 µM) it was 0.813. Also, the relative viability in assay [2] (first compound 0.1 µM) came out at 0.717; in assay [2] (first compound 0.3162 µM), 0.805; in assay [3] (first compound 0.0128 µM), 0.717; in assay [3] (first compound 0.04048 µM), 0.58; in assay [3] (first compound 0.128 µM), 0.583; in assay [3] (first compound 1.28 µM), 0.664. Besides, the relative viability in assay [4] (first compound 0.0128 µM) came to 0.47; in assay [4] (first compound 0.04048 µM), 0.469; in assay [4] (first compound 0.128 µM), 0.493; in assay [4] (first compound 1.28 µM), 0.417; in assay [5] (first compound 0.0128 µM) it was 1.17; in assay [5] (first compound 0.04048 µM), 1.22. Further, the relative viability is 0.993 in assay [5] (first compound 0.128 µM) and 1.07 in assay [5] (first compound 1.28 µM).

EKVX: the relative viability in assay [1] (first compound 0.01 µM) was 0.696; in assay [1] (first compound 0.03162 µM), 0.598; in assay [1] (first compound 0.1 µM) it was 0.468; in assay [1] (first compound 0.3162 µM) it was 0.456; in assay [2] (first compound 0.01 µM), 0.836; in assay [2] (first compound 0.03162 µM), 0.847. Further, the relative viability in assay [2] (first compound 0.1 µM) came out at 0.738; in assay [2] (first compound 0.3162 µM) it was 0.775; in assay [3] (first compound 0.0128 µM), 0.406; in assay [3] (first compound 0.04048 µM), 0.236; in assay [3] (first compound 0.128 µM) it was 0.305; in assay [3] (first compound 1.28 µM), 0.236. The relative viability in assay [4] (first compound 0.0128 µM) worked out at 0.765; in assay [4] (first compound 0.04048 µM), 0.853; in assay [4] (first compound 0.128 µM), 0.618; in assay [4] (first compound 1.28 µM), 0.54; in assay [5] (first compound 0.0128 µM) it was 0.986; in assay [5] (first compound 0.04048 µM), 1.04. The relative viability stood at 0.755 in assay [5] (first compound 0.128 µM) and 0.359 in assay [5] (first compound 1.28 µM).

As to LXF-289, the relative viability in assay [1] (first compound 0.01 µM) is 0.21; in assay [1] (first compound 0.03162 µM), 0.173; in assay [1] (first compound 0.1 µM), 0.174; in assay [1] (first compound 0.3162 µM) it was 0.124; in assay [2] (first compound 0.01 µM), 1.13; in assay [2] (first compound 0.03162 µM), 1.05. For the same cell line, the relative viability in assay [2] (first compound 0.1 µM) is 1.04; in assay [2] (first compound 0.3162 µM), 0.992; in assay [3] (first compound 0.0128 µM), 0.78; in assay [3] (first compound 0.04048 µM), 0.468; in assay [3] (first compound 0.128 µM), 0.692; in assay [3] (first compound 1.28 µM), 0.811. In addition, the relative viability is 0.875 in assay [4] (first compound 0.0128 µM); 0.76 in assay [4] (first compound 0.04048 µM); 0.71 in assay [4] (first compound 0.128 µM); 0.652 in assay [4] (first compound 1.28 µM); 0.863 in assay [5] (first compound 0.0128 µM); 0.794 in assay [5] (first compound 0.04048 µM). Besides, the results for the relative viability in assay [5] (first compound 0.128 µM) and in assay [5] (first compound 1.28 µM) were 0.864 and 0.98, respectively.

On to NCI-H650, for which the relative viability in assay [1] (first compound 0.01 µM) came out at 0.401; in assay [1] (first compound 0.03162 µM) it was 0.406; in assay [1] (first compound 0.1 µM), 0.385; in assay [1] (first compound 0.3162 µM) it was 0.315; in assay [2] (first compound 0.01 µM), 0.36; in assay [2] (first compound 0.03162 µM) it was 0.406. For the same cell line, the relative viability in assay [2] (first compound 0.1 µM) is 0.412; in assay [2] (first compound 0.3162 µM) it was 0.313; in assay [3] (first compound 0.0128 µM), 0.993; in assay [3] (first compound 0.04048 µM), 0.501; in assay [3] (first compound 0.128 µM), 1.15; in assay [3] (first compound 1.28 µM), 0.879. Moreover, the relative viability amounted to 0.56 in assay [4] (first compound 0.0128 µM); 0.798 in assay [4] (first compound 0.04048 µM); 0.524 in assay [4] (first compound 0.128 µM); 0.458 in assay [4] (first compound 1.28 µM); 0.665 in assay [5] (first compound 0.0128 µM); 0.716 in assay [5] (first compound 0.04048 µM). Besides, the relative viability in assay [5] (first compound 0.128 µM) was 0.603; in assay [5] (first compound 1.28 µM), 0.739.

NCI-H1650: the relative viability in assay [1] (first compound 0.01 µM) is 0.336; in assay [1] (first compound 0.03162 µM), 0.34; in assay [1] (first compound 0.1 µM) it was 0.254; in assay [1] (first compound 0.3162 µM), 0.254; in assay [2] (first compound 0.01 µM) it was 0.945; in assay [2] (first compound 0.03162 µM), 0.793. In addition, the relative viability stood at 0.727 in assay [2] (first compound 0.1 µM); 0.703 in assay [2] (first compound 0.3162 µM); 0.489 in assay [3] (first compound 0.0128 µM); 0.448 in assay [3] (first compound 0.04048 µM); 0.586 in assay [3] (first compound 0.128 µM); 0.452 in assay [3] (first compound 1.28 µM). Also, the relative viability in assay [4] (first compound 0.0128 µM) is 0.54; in assay [4] (first compound 0.04048 µM), 0.707; in assay [4] (first compound 0.128 µM) it was 0.492; in assay [4] (first compound 1.28 µM), 0.577; in assay [5] (first compound 0.0128 µM), 0.898; in assay [5] (first compound 0.04048 µM) it was 1.07. Also, the values for the relative viability in assay [5] (first compound 0.128 µM) and in assay [5] (first compound 1.28 µM) were 0.957 and 0.638, respectively.
